Measurements reported in publication PMC6801585, “Improved In Vivo Anti-Tumor and Anti-Metastatic Effect of GnRH-III-Daunorubicin Analogs on Colorectal and Breast Carcinoma Bearing Mice” (International Journal of Molecular Sciences, 2019).
Several values for one entry are separate records, joined by “and”; a condition that tells them apart may be missing. Equal values may be shown once.

Assays:
[1] = system: HT-29 human colon carcinoma; experiment: Orthotopic HT-29 human colon tumor model; format: in vivo, SCID female mice
Procedure: Immunodeficient, 6–8 weeks old SCID female mice (21–27 g) were used in this experiment. HT-29 colon carcinoma cells were subcutaneously injected into one side of the intrascapular region, whereby 2 × 10^6 cells were used per animal, suspended in 200 µL of M199 medium, in order to establish the xenografts with primary tumor. After two weeks, the mice with palpable tumors were sacrificed by cervical dislocation, disinfected with iodine and the subcutaneous tumor was aseptically dissected out.
The abdomen of mice was disinfected with iodine and alcohol, a small midline incision (0.5 cm) was then made and the colorectal part of the intestine was exteriorized. Serosa of the site where the tumor pieces should be implanted were removed. Tumor tissue fragments of HT-29 human colon tumor were implanted on the top of the animal intestine, whereby an 8/0 surgical (polypropylene) suture was used to suture it on the wall of the intestine. The intestine was returned to the abdominal cavity and the abdominal wall was closed with 4/0 surgical (polyglycolic acid) sutures. The wound was disinfected with iodine and alcohol again and the animals were kept in a sterile environment.
The treatments started seven days after tumor transplantation by i.p. administration of the free Dau and conjugates which were dissolved in sterile water for injection. Six mice per group were used. One group of mice was treated with free Dau at a dose of 1 mg/kg body weight on day 7, 13 and 20 after tumor transplantation. […] The control group was treated with sterile water. The experiment was terminated on day 30 after tumor transplantation (day 24 of treatment). […] The mice from all groups were sacrificed by cervical dislocation. Their tumors and livers were harvested and weighed.

MRC-5 = experiment: In vitro anti-proliferative activity (MTT assay); format: cell-based; conditions: Homo sapiens, MRC5, MRC-5 (normal fibroblast), 24 h treatment + 48 h culture, average ± SD
Procedure: (§1) In experimental procedures following cell lines were used, MDA-MB-231 and MCF-7 (human breast cancer), 4T1 (mice breast cancer), DU145 and PC-3 (human prostate cancer), A2780, OVCAR-3 and OVCAR-8 (human ovarian cancer), HepG2 (human liver cancer), A2058, WM983b, HT168-M1/9 and M24 (human melanoma), B16 (mice melanoma), H1975, H1650 and A549 (human lung cancer), HT-29 (human colorectal adenocarcinoma), C26 (mice colon cancer) and PANC-1 (pancreatic cancer) were cultured in RPMI 1640 Medium with glutamine (Roswell Park Memorial Institute Medium, Lonza, Basel, Switzerland). Moreover, U87MG (human malignant glioma) and MRC-5 (normal human fibroblast) were cultured in Dulbecco’s Modified Eagle’s Medium (DMEM, Lonza) and PE/CA-PJ15 and PE/CA-PJ41 (head and neck cancer) were cultured in Iscove’s Modified Dulbecco’s Medium (IMEM, Sigma Aldrich, St. Louis, MO, USA). Apart from the cell culture medium for OVCAR-3 cells, all media were supplemented with 10% heat-inactivated FBS (Fetal Bovine Serum, Euroclone, Milan, Italy) and 1% Penicillin/Streptomycin (Sigma Aldrich), while OVCAR-3 cells were cultured in 20% FBS containing RPMI medium. The cell lines were mainly obtained from ATCC, except for PE/CA-PJ15, PE/CA-PJ41 (ECACC), A2058 (kindly provided by L.A. Liotta, NCI, Bethesda, MD, USA), HT-168-M1/9 (derived from A2058), M24 (kind gift from B.M. Mueller, Scripps Research Institute, La Jolla, CA, USA) and WM983b (kindly provided by Meenhard Herlyn, Wistar Institute, Philadelphia, PA, USA). Cells were cultured in sterile T25 or T75 flasks with ventilation cap (Sarstedt, Nümbrecht, Germany) at 37 °C in a humidified atmosphere with 5% CO2.
(§2) For the evaluation of the in vitro anti-proliferative activity of the GnRH-III conjugates and free Dau, the cell viability was determined by MTT assay (3-(4,5-dimethylthiazol-2-yl)-2,5-diphenyl-tetrazolium bromide) that was obtained from Sigma Aldrich. After standard harvesting of the cells by trypsin-EDTA (Lonza), 4 × 10^3 till 10 × 10^3 cells per well depending on cell line, were seeded in serum containing growth medium to 96-well plates (Sarstedt) and incubated. After 24 h, the growth medium was removed and cells were treated with various concentrations of conjugates 1 and 2 (32 nM–100 µM) or free Dau (0.1 nM–10 µM), dissolved in serum free medium and incubated for 24 h under standard conditions. The control wells were treated with serum free medium. After 24 h of treatment, the cells were washed twice with serum free medium and then cultured in serum containing medium for an additional 48 h. Afterward, the MTT assay was performed, in order to determine cell viability, by adding 20 µL of MTT solution (5 mg/mL in PBS) to each well and after 2 h of incubation at 37 °C, the supernatant was removed. The formazan crystals were dissolved in 100 µL of a 1:1 solution of DMSO (Sigma Aldrich):EtOH (Molar Chemicals Kft., Halásztelek, Hungary) and the absorbance was measured after 15 min. at λ = 570 nm by using a microplate reader (Bio-Rad, model 550, Hercules, CA, USA). The IC50 values of the conjugates and free drug were calculated while using GraphPad Prism 6 (GraphPad Software, San Diego, CA, USA). The experiments were done in triplicate and each experiment was repeated twice.

A2780 = experiment: In vitro anti-proliferative activity (MTT assay); format: cell-based; conditions: Homo sapiens, A2780 (ovarian), 24 h treatment + 48 h culture, average ± SD
Procedure: as §1, §2

HepG2 = experiment: In vitro anti-proliferative activity (MTT assay); format: cell-based; conditions: Homo sapiens, HepG2 (liver), 24 h treatment + 48 h culture, average ± SD
Procedure: as §1, §2

MCF-7 = experiment: In vitro anti-proliferative activity (MTT assay); format: cell-based; conditions: Homo sapiens, MCF7, MCF-7 (breast), 24 h treatment + 48 h culture, average ± SD
Procedure: as §1, §2

B16 = experiment: In vitro anti-proliferative activity (MTT assay); format: cell-based; conditions: Mus musculus, B16 (mice melanoma), 24 h treatment + 48 h culture, average ± SD
Procedure: as §1, §2

A549 = experiment: In vitro anti-proliferative activity (MTT assay); format: cell-based; conditions: Homo sapiens, A549 (lung), 24 h treatment + 48 h culture, average ± SD
Procedure: as §1, §2

DU145 = experiment: In vitro anti-proliferative activity (MTT assay); format: cell-based; conditions: Homo sapiens, DU-145, DU145 (prostate), 24 h treatment + 48 h culture, average ± SD
Procedure: as §1, §2

C26 = experiment: In vitro anti-proliferative activity (MTT assay); format: cell-based; conditions: Mus musculus, C26 (mice colon), 24 h treatment + 48 h culture, average ± SD
Procedure: as §1, §2

MDA-MB-231 = experiment: In vitro anti-proliferative activity (MTT assay); format: cell-based; conditions: Homo sapiens, MDA-MB-231 (breast), 24 h treatment + 48 h culture, average ± SD
Procedure: as §1, §2

PANC-1 = experiment: In vitro anti-proliferative activity (MTT assay); format: cell-based; conditions: Homo sapiens, PANC-1 (pancreas), 24 h treatment + 48 h culture, average ± SD
Procedure: as §1, §2

U87MG = experiment: In vitro anti-proliferative activity (MTT assay); format: cell-based; conditions: Homo sapiens, U-87 MG, U87MG (glioblastoma), 24 h treatment + 48 h culture, average ± SD
Procedure: as §1, §2

H1975 = experiment: In vitro anti-proliferative activity (MTT assay); format: cell-based; conditions: Homo sapiens, NCI-H1975, H1975 (lung), 24 h treatment + 48 h culture, average ± SD
Procedure: as §1, §2

WM983b = experiment: In vitro anti-proliferative activity (MTT assay); format: cell-based; conditions: Homo sapiens, WM983b (melanoma), 24 h treatment + 48 h culture, average ± SD
Procedure: as §1, §2

HT-29 = experiment: In vitro anti-proliferative activity (MTT assay); format: cell-based; conditions: Homo sapiens, HT-29 (colon), 24 h treatment + 48 h culture, average ± SD
Procedure: as §1, §2

PE/CA-PJ15 = experiment: In vitro anti-proliferative activity (MTT assay); format: cell-based; conditions: PE/CA-PJ15 (head and neck), 24 h treatment + 48 h culture, average ± SD
Procedure: as §1, §2

OVCAR-8 = experiment: In vitro anti-proliferative activity (MTT assay); format: cell-based; conditions: Homo sapiens, OVCAR-8 (ovarian), 24 h treatment + 48 h culture, average ± SD
Procedure: as §1, §2

M24 = experiment: In vitro anti-proliferative activity (MTT assay); format: cell-based; conditions: Homo sapiens, M24 (melanoma), 24 h treatment + 48 h culture, average ± SD
Procedure: as §1, §2

[2] = SCID mice, i.p., 1 and 2 10 mg/kg Dau content x7, end day 30, free Dau 1 mg/kg x3, end day 23, 6 per group

COc1cccc2c1C(=O)c1c(O)c3c(c(O)c1C2=O)C[C@@](O)(C(C)=O)C[C@@H]3O[C@H]1C[C@H](N)[C@H](O)[C@H](C)O1 [Dau, daunorubicin]
Decrease of liver/body weight ratio compared to control ([1]; 1 and 2 10 mg/kg Dau content x7, day 30, free Dau 1 mg/kg x3, day 23): 29.4%
Animal body weight at the end of experiment compared to the start [1, 2]: significantly decreased
Reduction of tumor weight compared to control [1, 2]: 84.3% and 84%
IC50 (MRC-5): 288 ± 35.1 nM
IC50 (A2780): 10.4 ± 1.6 nM
IC50 (HepG2): 22.9 ± 1.4 nM
IC50 (MCF-7): 63.9 ± 21 nM
IC50 (B16): 26 ± 8 nM
IC50 (A549): 69.3 ± 23.5 nM
IC50 (DU145): 16.3 ± 4.6 nM
IC50 (C26): 118 ± 8.6 nM
IC50 (MDA-MB-231): 54.6 ± 7.4 nM
IC50 (PANC-1): 526 ± 24.7 nM
IC50 (U87MG): 126 ± 53.7 nM
IC50 (H1975): 20.9 ± 2.7 nM
IC50 (WM983b): 49.8 ± 22.9 nM
IC50 (HT-29): 202.9 ± 1 nM
IC50 (PE/CA-PJ15): 50.5 ± 38.7 nM
IC50 (OVCAR-8): 186 ± 99.8 nM
IC50 (M24): 119 ± 25 nM
